Results as given in patent US20100081679A1, “DIAMINOPYRIMIDINES AS FUNGICIDES” (Bayer CropScience AG, priority 2007, published 2010).
Marks after values point to notes of the source that are not given here.

Assay: logP determination via retention times, calibrated with unbranched alkan-2-ones
Assay type: physicochemical
Settings: HPLC on reversed-phase C 18, EEC Directive 79/831 Annex V.A8; method *: 40° C., 0.1% aqueous formic acid and acetonitrile, linear gradient 10% to 95% acetonitrile

| Structure (SMILES) | logP |
| --- | --- |
| O=C(N(c1ccc(Nc2ncc(Br)c(NCC3CC3)n2)cc1)C1CC1)C(F)(F)F [compound 465] | 2.74* |
| CCC(=O)c1cc(Nc2ncc(Cl)c(NCC3CC3)n2)ccc1O [compound 541] | 2.13* |

Next, values leading:

| logP | Structure (SMILES) |
| --- | --- |
| 2.21* | O=C(Nc1cccc(Nc2ncc(Cl)c(NCC3CC3)n2)c1)c1ccccc1 [compound 557] |
| 1.97* | Fc1ccc(Nc2ncc(Cl)c(NCC3CC3)n2)cc1 [compound 550] |
| 2.29* | O=C(Nc1cccc(Nc2ncc(Br)c(NCC3CC3)n2)c1)c1ccccc1 [compound 492] |

Same assay, conditions: HPLC on reversed-phase C 18, method **: 43° C.; 0.1% aqueous phosphoric acid and acetonitrile; linear gradient 10% to 95% acetonitrile

| Structure (SMILES) | logP |
| --- | --- |
| O=C1CCCN1c1cc(Nc2ncc(Br)c(NC3CC3)n2)ccc1F [compound 771] | 1.61** |

Same assay, conditions: HPLC on reversed-phase C18, method **: 43° C.; mobile phase 0.1% aqueous phosphoric acid and acetonitrile; linear gradient 10% to 95% acetonitrile

| Structure (SMILES) | logP |
| --- | --- |
| Cc1cc(Nc2ncc(Cl)c(NC3CC3)n2)c(C)cc1N [compound 313] | 0.87** |
| CC(C)NS(=O)(=O)Cc1ccc(Nc2ncc(Cl)c(NC3CC3)n2)cc1 [compound 324] | 1.75** |

Same assay, conditions: HPLC on reversed-phase C18, method *: 40° C., 0.1% aqueous formic acid and acetonitrile, linear gradient 10% to 95% acetonitrile

| Structure (SMILES) | logP |
| --- | --- |
| FC(F)Oc1ccc(Nc2ncc(Br)c(NC3CC3)n2)cc1 [compound 748] | 2.21* |
| COc1cc(Nc2ncc(Br)c(NC3CC3)n2)cc(OC)c1OC [compound 761] | 1.71* |
| CS(=O)(=O)Nc1ccc(Nc2ncc(Br)c(NC3CC3)n2)cc1 [compound 756] | 1.44* |
| CS(=O)(=O)c1ccc(Nc2ncc(Cl)c(NCC3CC3)n2)cc1 [compound 670] | 1.97* |
| CCNC(=O)c1cccc(Nc2ncc(Br)c(NC3CC3)n2)c1 [compound 702] | 1.44* |
| O=C(c1cccc(Nc2ncc(Cl)c(NC3CC3)n2)c1)N1CCOCC1 [compound 735] | 1.33* |

Continued, values first:

| logP | Structure (SMILES) |
| --- | --- |
| 3.46* | Cc1cc(Cl)c(Br)cc1Nc1ncc(Cl)c(NC2CC2)n1 [compound 933] |
| 2.36* | FC(F)Oc1ccccc1Nc1ncc(Cl)c(NC2CC2)n1 [compound 943] |
| 1.97* | O=C(c1ccc(Nc2ncc(Cl)c(NC3CC3)n2)cc1)N1CCCCC1 [compound 723] |
| 2.46* | Clc1cnc(Nc2ccccc2-c2ccccc2)nc1NC1CC1 [compound 900] |
| 2.14* | CC(Nc1nc(Nc2ccccc2)ncc1Cl)C1CC1 (stereo not drawn) [compound 166] |
| 1.24* | CCC(=O)Nc1ccc(Nc2ncc(Cl)c(NC3CC3)n2)cc1 [compound 711] |
| 3.68* | Fc1cc(C(F)(F)F)ccc1Nc1ncc(Cl)c(NC2CC2)n1 [compound 934] |

Same assay, conditions: HPLC on reversed-phase C18, method *: 40° C.; mobile phase 0.1% aqueous formic acid and acetonitrile; linear gradient 10% to 95% acetonitrile

| Structure (SMILES) | logP |
| --- | --- |
| CC(C)(C)NC(=O)c1ccc(Nc2ncc(Br)c(NC3CC3)n2)cc1 [compound 352] | 2.18* |
| CC(C)(C)C(=O)Nc1ccc(Nc2ncc(Br)c(NC3CC3)n2)cc1 [compound 347] | 1.83* |

Now from value to compound:

| logP | Structure (SMILES) |
| --- | --- |
| 2.77* | Clc1cccc(Nc2ncc(Br)c(NC3CC3)n2)c1 [compound 359] |
| 1.85* | COc1ccccc1Nc1ncc(Cl)c(NC2CC2)n1 [compound 282] |
| 2.26* | CCOC(=O)c1cccc(Nc2ncc(Cl)c(NC3CC3)n2)c1 [compound 292] |
| 3.42* | CC1(c2ccc(Nc3ncc(Cl)c(NC4CC4)n3)cc2)CCCC1 [compound 310] |
| 1.73* | COC(=O)Cc1cccc(Nc2ncc(Cl)c(NC3CC3)n2)c1 [compound 290] |

Same assay, conditions: HPLC on reversed-phase C18 column (EEC Directive 79/831 Annex V.A8); method *: 40° C.; 0.1% aqueous formic acid and acetonitrile; linear gradient 10% to 95% acetonitrile

| Structure (SMILES) | logP |
| --- | --- |
| O=S(=O)(c1cccc(Nc2ncc(Cl)c(NC3CC3)n2)c1)N1CCCCC1 [compound 246] | 2.8* |
| CS(=O)(=O)c1cccc(Nc2ncc(Br)c(NC3CC3)n2)c1 [compound 254] | 1.76* |
| CC(C)(C)C(=O)Nc1cccc(Nc2ncc(C(F)(F)F)c(NCC3CC3)n2)c1 [compound 205] | 2.77* |

Further lines, results first:

| logP | Structure (SMILES) |
| --- | --- |
| 1.67* | COCc1cccc(Nc2ncc(Cl)c(NC3CC3)n2)c1 [compound 268] |
| 1.47* | CS(=O)(=O)Nc1cccc(Nc2ncc(Cl)c(NC3CC3)n2)c1 [compound 242] |
| 1.76* | CCOc1ccc(Nc2ncc(Cl)c(NC3CC3)n2)cc1 [compound 183] |

Same assay, conditions: HPLC reversed-phase C 18, EEC Directive 79/831 Annex V.A8; method **: 43° C., 0.1% aqueous phosphoric acid and acetonitrile, linear gradient 10% to 95% acetonitrile

| Structure (SMILES) | logP |
| --- | --- |
| CN1CCN(c2ccc(Nc3ncc(Cl)c(NC4CC4)n3)cc2C(F)(F)F)CC1 [compound 846] | 1.38** |

Same assay, conditions: HPLC reversed-phase C 18, EEC Directive 79/831 Annex V.A8; method *: 40° C., 0.1% aqueous formic acid and acetonitrile, linear gradient 10% to 95% acetonitrile

| Structure (SMILES) | logP |
| --- | --- |
| CC(=O)Cc1cccc(Nc2ncc(Cl)c(NC3CC3)n2)c1 [compound 780] | 1.51* |
| O=C1COCCN1c1cccc(Nc2ncc(C(F)(F)F)c(NC3CC3)n2)c1 [compound 790] | 1.88* |
| Cc1ccc(Nc2ncc(Br)c(NC3CC3)n2)cc1CC#N [compound 820] | 1.85* |
| O=C1COCCN1c1cccc(Nc2ncc(Br)c(NC3CC3)n2)c1 [compound 789] | 1.24* |

Same assay, conditions: method **: HPLC reversed-phase C 18, 43° C., 0.1% aqueous phosphoric acid and acetonitrile, linear gradient 10% to 95% acetonitrile

| Structure (SMILES) | logP |
| --- | --- |
| COc1cc(Nc2ncc(Cl)c(NCC3CC3)n2)cc(OC)c1OC [Example 12] | 1.78** |
| CN(C)S(=O)(=O)c1ccc(Nc2ncc(Cl)c(NCC3CC3)n2)cc1 [compound 14] | 2.36** |

Results, then the compound that gave them:

| logP | Structure (SMILES) |
| --- | --- |
| 1.71** | CNS(=O)(=O)c1ccc(Nc2ncc(Cl)c(NC3CC3)n2)cc1 [compound 21] |
| 2.25** | COC(=O)c1ccc(Nc2ncc(Cl)c(NC3CC3)n2)cc1.Cl [compound 36] |
| 1.37** | CNS(=O)(=O)Cc1ccc(Nc2ncc(Cl)c(NC3CC3)n2)cc1 [Example 48] |
| 1.45** | O=C1CCCN1c1ccc(Nc2ncc(Cl)c(NC3CC3)n2)cc1 [Example 34] |
| 1.55** | O=C(O)c1ccc(Nc2ncc(Cl)c(NC3CC3)n2)cc1 [Example 35] |
| 1.37** | NS(=O)(=O)c1ccc(Nc2ncc(Cl)c(NC3CC3)n2)cc1 [compound 25] |

Same assay, conditions: method **: HPLC reversed-phase C 18, temperature 43° C.; mobile phase 0.1% aqueous phosphoric acid and acetonitrile; linear gradient 10% to 95% acetonitrile

| Structure (SMILES) | logP |
| --- | --- |
| CNC(=O)c1cccc(Nc2ncc(C(F)(F)F)c(NC3CC3)n2)c1 [compound 652] | 1.78** |

Same assay, conditions: method **: HPLC, reversed-phase C 18, 43° C., mobile phase 0.1% aqueous phosphoric acid and acetonitrile, linear gradient from 10% to 95% acetonitrile

| Structure (SMILES) | logP |
| --- | --- |
| Clc1cnc(Nc2cccc(CN3CCCC3)c2)nc1NC1CC1 [compound 1043] | 0.92** |
| COc1ccc(CN(c2nc(Nc3ccccc3)ncc2Cl)C2CC2)cc1 [compound 1025] | 4.15** |

Same assay, conditions: method *: HPLC reversed-phase C18, 40° C., 0.1% aqueous formic acid and acetonitrile, linear gradient 10% to 95% acetonitrile

| Structure (SMILES) | logP |
| --- | --- |
| CC(C)(C)C(=O)Nc1ccc(Nc2ncc(Br)c(NCC3CC3)n2)cc1 [compound 450] | 1.99* |
| CC(C)(C)OC(=O)Nc1ccc(Nc2ncc(Br)c(NC3CC3)n2)cc1 [compound 391] | 2.13* |
| FC(F)C(F)(F)Oc1ccc(Nc2ncc(Br)c(NCC3CC3)n2)cc1 [compound 462] | 2.8* |
| CS(=O)(=O)c1ccc(Nc2ncc(Br)c(NCC3CC3)n2)cc1 [compound 448] | 2.09* |
| CSc1ccc(Nc2ncc(Br)c(NCC3CC3)n2)cc1 [compound 453] | 2.29* |
| Oc1ccc(Nc2ncc(Br)c(NCC3CC3)n2)cc1F [compound 464] | 1.53* |

Now from value to compound:

| logP | Structure (SMILES) |
| --- | --- |
| 1.8* | Fc1ccc(Nc2ncc(Cl)c(NC3CC3)n2)cc1 [Example 80] |
| 2.91* | COC(=O)c1ccc(Nc2ncc(Cl)c(NC3CC3)n2)cc1Cl [compound 378] |
| 2.2* | N#CCS(=O)(=O)c1ccc(Nc2ncc(Cl)c(NC3CC3)n2)cc1 [compound 62] |
| 2.73* | CCSc1cccc(Nc2ncc(Cl)c(NC3CC3)n2)c1.Cc1ccc(S(=O)(=O)O)cc1 [compound 440] |
| 3.62* | O=C(c1ccc(Nc2ncc(Cl)c(NC3CC3)n2)cc1)C(F)(F)F [Example 73] |
| 2.68* | O=S(=O)(c1ccc(Nc2ncc(Cl)c(NC3CC3)n2)cc1)N1CCOCC1 [compound 85] |

Same assay, conditions: method *: HPLC reversed-phase C 18, temperature 40° C.; mobile phase 0.1% aqueous formic acid and acetonitrile; linear gradient 10% to 95% acetonitrile

| Structure (SMILES) | logP |
| --- | --- |
| CNC(=O)c1cccc(Nc2ncc(C(F)(F)F)c(NC3CC3)n2)c1 [compound 652] | 1.78*; |
| COc1cccc(Nc2ncc(C(F)(F)F)c(NC3CC3)n2)c1 [compound 640] | 2.73* |
| CC(C)(C)OC(=O)NCc1ccc(Nc2ncc(C#N)c(NC3CC3)n2)cc1 [compound 615] | 2.77* |
| CC(C)(C)C(=O)Cc1ccc(Nc2ncc(F)c(NC3CC3)n2)cc1 [compound 589] | 1.92* |
| CN1CCN(c2cccc(Nc3ncc(Br)c(NC4CC4)n3)c2)C1=O [compound 570] | 1.58* |
| Cc1cnc(Nc2cccc(N3CCCC3=O)c2)nc1NC1CC1 [compound 567] | 1.14* |
| N#Cc1cccc(Nc2ncc(F)c(NC3CC3)n2)c1 [compound 571] | 1.61* |
| CC(=O)Nc1cc(Nc2ncc(F)c(NC3CC3)n2)ccc1C [compound 601] | 1.15* |
| N#Cc1cccc(Nc2ncc(C(F)(F)F)c(NC3CC3)n2)c1 [compound 638] | 2.95* |

Same assay, conditions: method *: HPLC, reversed-phase C 18, 40° C., mobile phase 0.1% aqueous formic acid and acetonitrile, linear gradient from 10% to 95% acetonitrile

| Structure (SMILES) | logP |
| --- | --- |
| CCN(CC)C(=O)c1cccc(Nc2ncc(C(F)(F)F)c(NC3CC3)n2)c1 [compound 1049] | 2.71* |
| CCc1cccc(Nc2ncc(Cl)c(N(C)C3CC3)n2)c1 [compound 1058] | 3.65* |
| CCCS(=O)(=O)c1cccc(Nc2ncc(C(F)(F)F)c(NCC3CC3)n2)c1 [compound 1068] | 3.25* |

More lines, now with the values ahead:

| logP | Structure (SMILES) |
| --- | --- |
| 1.8* | O=C(c1cccc(Nc2ncc(Cl)c(NC3CC3)n2)c1)N1CCSCC1 [compound 1067] |
| 2.55* | CCSCc1cccc(Nc2ncc(Cl)c(NC3CC3)n2)c1 [compound 986] |
| 1.97* | CC(C)Oc1ccc(Nc2ncc(Cl)c(NC3CC3)n2)cc1 [compound 989] |

Same assay, conditions: pH 2.3; read-out: logP (pH2.3)

| Structure (SMILES) | chromatographic logP |
| --- | --- |
| Cc1cnc(Cl)nc1NC1CC1 [2-chloro-N-cyclopropyl-5-methylpyrimidine-4-amine] | 1.28 |
